Test results: US8598234B2, “Compositions of dibromomalonamide and their use as biocides” (Dow Global Technologies LLC, priority 2009, dated 2013)
Like-named read-outs stand apart in the source and are kept apart here.

System: mixture of Pseudomonas aeruginosa, Klebsiella pneumoniae, Staphylococcus aureus, and Bacillus subtilis
Assay: Growth inhibition assay (microtiter plate-based synergy assay)
Type: cell-based
Settings: 24 h; for concentration needed to prevent at least 90% of the growth (I90) of the microbial consortium: active used alone
From the text: Details of each assay are provided below.
Growth Inhibition Assay. […] Regardless of the mechanism of action, the impact of a biocide (or combination of biocides) can be measured over time on the basis of an increase in the size of the community.
The assay measures the efficacy of one or more biocides at preventing growth of a consortium of bacteria in a dilute mineral salts medium. The medium contains (in mg/l) the following components: FeCl3.6H2O (1); CaCl2.2H2O (10); MgSO4.7H2O (22.5); (NH4)2SO4 (40); KH2PO4 (10); K2HPO4 (25.5); Yeast Extract (10); and glucose (100). After all components are added to deionized water, the pH of the medium is adjusted to 7.5. Following filter sterilization, aliquots are dispensed in 100 ul quantities to sterile microtiter plate wells. Dilutions of 2,2-dibromomalonamide (“DBMAL”) and/or “Biocide B” are then added to the microtiter plate. After preparing the combinations of actives as illustrated below, each well is inoculated with 100 μl of a cell suspension containing ca. 1×10^6 cells per milliliter of a mixture of Pseudomonas aeruginosa, Klebsiella pneumoniae, Staphylococcus aureus, and Bacillus subtilis. The final total volume of medium in each well is 300 μl. Once prepared as described herein, the concentration of each active ranges from 25 ppm to 0.195 ppm as illustrated in Table 1. The resulting matrix allows testing of eight concentrations of each active and 64 combinations of actives in the ratios (of actives).
Controls (not shown) contain the medium with no biocide added. After preparing the combinations of actives as illustrated above, each well is inoculated with 100 μl of a cell suspension containing ca. 1×10^6 cells per milliliter of a mixture of Pseudomonas aeruginosa, Klebsiella pneumoniae, Staphylococcus aureus, and Bacillus subtilis. The final total volume of medium in each well is 300 μl.
Immediately after the microtiter plates are prepared, the optical density (OD) readings for each well is measured at 580 nm and the plates are then incubated at 37° C. for 24 hr. After the incubation period, the plates are gently agitated before OD580 values are collected. The OD580 values at T0 are subtracted from T24 values to determine the total amount of growth (or lack thereof) that occurs. These values are used to calculate the percent inhibition of growth caused by the presence of each biocide and each of the 64 combinations.
where • CDBMAL: Concentration of DBMAL required to inhibit ˜90% of bacterial growth when used alone • CB: Concentration of biocide (B) required to inhibit ˜90% of bacterial growth when used alone.
MDBMAL: Concentration of DBMAL required to inhibit ˜90% of bacterial growth when used in combination with biocide (B).
MB: Concentration of biocide (B) required to inhibit ˜90% of bacterial growth when used in combination with DBMAL
The SI values are interpreted as follows:
• SI<1: Synergistic combination • SI=1: Additive combination • SI>1: Antagonistic combination
In the Examples below, the amounts of biocides in the solution are measured in mg per liter of solution (mg/l). Since solution densities are approximately 1.00, the mg/l measurement corresponds to weight ppm. Both units may therefore be used interchangeably in the Examples.

[1] = read-out: % Inhibition of growth by SOPP

In the case of `Oc1ccccc1-c1ccccc1.[Na]` [SOPP, sodium ortho-phenylphenol], the inhibition at 0.78 µg/mL [1] is reported as 0%, the inhibition at 1.56 µg/mL [1] is reported as 17% and the inhibition at 3.13 µg/mL [1] is reported as 0%. It also gave an inhibition at 6.25 µg/mL [1] of 37%, an inhibition at 12.5 µg/mL [1] of 68% and an inhibition at 25 µg/mL [1] of 98%. The inhibition at 50 µg/mL [1] was 98% and the “concentration needed to prevent at least 90% of the growth (I90) of the microbial consortium” value was 500 mg/L.
For `NC(=O)C(Br)(Br)C(N)=O` [DBMAL, 2,2-dibromomalonamide], the inhibition at […] (DBMAL alone 0.19 mg/l, OD580) was 0%, the inhibition at 0.39 µg/mL (DBMAL alone 0.39 mg/l, OD580) was 4% and the inhibition at 0.78 µg/mL (DBMAL alone 0.78 mg/l, OD580, read-out: % Inhibition of growth by DBMAL) was 7%. It also gave an inhibition at 1.56 µg/mL (DBMAL alone 1.56 mg/l, OD580, read-out: % Inhibition of growth by DBMAL) of 0%, an inhibition at 3.13 µg/mL (DBMAL alone 3.13 mg/l, OD580, read-out: % Inhibition of growth by DBMAL) of 0% and an inhibition at 6.25 µg/mL (DBMAL alone 6.25 mg/l, OD580, read-out: % Inhibition of growth by DBMAL) of 49%. The inhibition at 12.5 µg/mL (DBMAL alone 12.5 mg/l, OD580, read-out: % Inhibition of growth by DBMAL) was 100%, the inhibition at 25 µg/mL (DBMAL alone 25.0 mg/l, OD580, read-out: % Inhibition of growth by DBMAL) was 100% and the “concentration needed to prevent at least 90% of the growth (I90) of the microbial consortium” value was 12.5 mg/L.
